Reference: patent US9464064B2, “HCV helicase inhibitors and methods of use thereof” (University of Kansas, priority 2011, dated 2016)
Residues, ends and D or L forms follow the SMILES beside them. *: point of attachment. Cbz = O=C(OCc1ccccc1)*; CH2Cl = ClC*

Biological target: T1, HCV NS3 helicase NS3h_1b(con1) (Hepatitis C virus genotype 1b, UniProt Q9WMX2)
T1 construct: truncated C-terminally His-tagged NS3 proteins lacking the N-terminal protease, called NS3h; His-tag (C); made in house
Experiment: MBHA screen of NCI mechanistic set library at 20 μM (percent inhibition, compound interference)
Type: biochemical
Conditions: compounds at 20 μM; for Inh. (%) (Inhibition): calculated from Equation 1
Method in brief: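 Molecular beacon-based DNA unwinding assay; compounds screened at 20 μM in triplicate, with DMSO-only negative and 500 nM dT20 positive controls. Fluorescence (ex 643/em 670 nm) was read before and 30 min after adding ATP to 1 mM. Percent inhibition came from the change relative to DMSO controls; interference from pre-ATP fluorescence versus DMSO controls.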

[1] = MBHA with DNA substrate, assay interference calculated with Equation 2
[2] = assay interference calculated with Equation 2 (fluorescence vs DMSO-only controls before ATP)

T1 sequence (Q9WMX2 1192-1657): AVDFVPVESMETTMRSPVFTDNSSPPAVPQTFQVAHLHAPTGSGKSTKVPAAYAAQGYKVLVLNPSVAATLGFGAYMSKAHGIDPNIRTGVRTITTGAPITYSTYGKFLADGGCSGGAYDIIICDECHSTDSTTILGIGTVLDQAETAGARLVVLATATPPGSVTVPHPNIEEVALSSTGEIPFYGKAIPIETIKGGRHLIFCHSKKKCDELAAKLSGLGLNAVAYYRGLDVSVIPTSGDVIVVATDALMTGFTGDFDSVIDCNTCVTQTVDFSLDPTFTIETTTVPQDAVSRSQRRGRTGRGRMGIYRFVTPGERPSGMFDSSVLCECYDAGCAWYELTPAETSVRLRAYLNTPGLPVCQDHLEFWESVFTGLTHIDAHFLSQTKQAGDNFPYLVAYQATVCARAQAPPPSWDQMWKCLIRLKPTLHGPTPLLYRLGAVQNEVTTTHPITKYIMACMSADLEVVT

SMILES	Int.* (Ratio) (Interference) [1]	Inh. (%) (Inhibition) (MBHA with DNA substrate)	Inh. (%) (Inhibition) (MBHA with a DNA substrate)	Int.* (Ratio) (Interference) [2]	Inh. (%) (Inhibition) (MBHA with DNA substrate, 20 µM)
CC1=CC(=O)c2cccc(NC3=NCCO3)c21 [Compound 664331]	1.03	−1.8			
Nc1ncnc2c(C3OC(CO)C(O)C3O)[nH]nc12 (stereo not shown) [Compound 102811]	1.08	1.0			
Cc1c(Cl)ccc2c1NC(=O)C2(O)C(C(=O)c1ccccc1)c1ccccc1 (stereo not shown) [Compound 635321]	1.01	5.1			
CN1CCN(CCCN2c3ccccc3Sc3ccc(C(F)(F)F)cc32)CC1 [Compound 46061]	0.93	13.2			
C=C1C(=O)C23CC[C@@H]4C(C)(C(=O)OC)CCCC4(C)[C@@H]2CCC1(O)C3 (stereo partly shown) [Compound 620358]	0.91	−10.5			
Nc1nc(N)c(N=Nc2ccccc2)c(=O)[nH]1 [Compound 5200]			7.0	1.02	
CCOC(=O)c1ccc(-c2cc(C)no2)[nH]1 [Compound 693053]	0.93	−18.5			
[Cl-].c1csc(C[N+]23CN4CN(CN(C4)C2)C3)c1 [Compound 49660]	0.93	21.2			
CCSC(=O)N1c2ccc(OC)cc2C=CC1C#N (stereo not shown) [Compound 165897]	1.20	−14.2			
CC1OC(O[C@@H]2C=C3CC[C@@H]4[C@H](CC[C@]5(C)[C@@H](c6ccc(=O)oc6)CC[C@]45O)[C@@]3(C)CC2)C(O)C(O)C1O (stereo partly shown) [Compound 7521]	0.94	5.5			
O=C(O)CC(NC(=O)CP(=O)(O)O)C(=O)O (stereo not shown) [Compound 224131]	0.86	12.3			
COc1cc2c(c(O)c1OC)-c1c(cc(OC)c(OC)c1OC)C[C@@H](C)[C@@H](C)C2 [Compound 330515]	0.95	4.3			
[Mo] [Compound 622116]	0.97				3.5
COc1ccc(N=C2C(=Nc3ccc(OC)cc3)N(c3ccc(N(C)C)cc3)C(=S)N2c2ccc(OC)cc2)cc1 [Compound 671394]			−5.4	0.86	
Nc1ncnc2c([C@@H]3O[C@H](CO)[C@@H](O)[C@H]3O)c[nH]c12 [Compound 352890]			7.0	0.94	
CC(C)CC(NC(=O)OCc1ccccc1)C(=O)NC(Cc1ccccc1)C(=O)CCl (stereo not drawn) [Compound 173904] (Cbz-Leu-Phe-CH2Cl; configuration not given here)	1.09	1.4			
O=[N+]([O-])c1ccc(-c2cn(-c3ccc(Cl)cc3)cn2)cc1 [Compound 610744]	0.83	21.5			
c1ccc2c(NCCCCCCCCNc3c4ccccc4nc4ccccc34)c3ccccc3nc2c1 [Compound 219734]	0.26	41.8			
COc1c2c(c(OC)c3c1c(=O)c1ccccc1n3C)OCO2 [Compound 34757]	0.98	−7.4			
O=c1oc2cc(O)ccc2c2oc3cc(O)ccc3c12 [Compound 22842]	1.10	1.5			
CC1=CC(=O)c2ccccc2C1=O [Compound 4170]			−27.3	1.09	
O=C1c2cccc(O)c2C(=O)c2c(O)cccc21 [Compound 7210]	0.97	−0.5			
CCCn1c(=O)c2ccccc2[n+]2c(-c3ccc([N+](=O)[O-])cc3)csc12.[Br-] [Compound 657603]	0.94	−15.1			
Cl.Cl.Cl.Cl.NCCCNCCCCNCCCN [Compound 69852]	1.06	−8.6			
CC1=Nc2ccccc2/C1=C\c1c(C)[nH]c2ccccc12 [Compound 76747]	1.14	−1.2			
C[n+]1ccc(Nc2ccc(NC(=O)c3ccc(Nc4cc[n+](C)c5ccc([N+](=O)[O-])cc45)cc3[N+](=O)[O-])cc2)cc1.Cl [Compound 218439]	0.46	−8.9			
